In paper PMC11252457 (Acta Pharmaceutica Sinica. B, 2024):

Legend:
WT HIV-1 (IIIB) = assay: microbe, parasite or virus in culture; type: cell-based; conditions: for EC50: Human immunodeficiency virus 1, IIIB, MT4, read-out: EC50 IIIB; for SI IIIB: ratio of CC50/EC50, IIIB
[1] = test system: HIV-1 RES056 (K103N/Y181C); assay: microbe, parasite or virus in culture; type: cell-based; conditions: for EC50: Human immunodeficiency virus 1, MT4, read-out: EC50 RES056; for SI RES056: ratio of CC50/EC50, RES056
[2] = test system: HIV-1 mutant strain L100I; assay: microbe, parasite or virus in culture; type: cell-based; conditions: Human immunodeficiency virus 1, MT4, read-out: EC50 L100I
[3] = test system: HIV-1 mutant strain K103N; assay: microbe, parasite or virus in culture; type: cell-based; conditions: Human immunodeficiency virus 1, MT4, read-out: EC50 K103N
[4] = test system: HIV-1 mutant strain Y181C; assay: microbe, parasite or virus in culture; type: cell-based; conditions: Human immunodeficiency virus 1, MT4, read-out: EC50 Y181C
[5] = test system: HIV-1 mutant strain Y188L; assay: microbe, parasite or virus in culture; type: cell-based; conditions: Human immunodeficiency virus 1, MT4, read-out: EC50 Y188L
[6] = test system: HIV-1 mutant strain E138K; assay: microbe, parasite or virus in culture; type: cell-based; conditions: Human immunodeficiency virus 1, MT4, read-out: EC50 E138K
[7] = test system: HIV-1 double mutant strain F227L/V106A; assay: microbe, parasite or virus in culture; type: cell-based; conditions: Human immunodeficiency virus 1, MT4, read-out: EC50 F227L/V106A
[8] = Cytotoxicity in mock-infected MT-4 cells; conditions: human
recombinant WT HIV-1 RT = recombinant WT HIV-1 RT (Human immunodeficiency virus type 1 group M subtype B, UniProt P03366); assay: HIV-1 RT inhibition assay; type: biochemical

Compound | EC50 (WT HIV-1 (IIIB)) | SI IIIB (WT HIV-1 (IIIB)) | EC50 [1] | SI RES056 [1] | EC50 [2] | EC50 [3] | EC50 [4] | EC50 [5] | EC50 [6] | EC50 [7] | CC50 at 5 days [8] | IC50 (recombinant WT HIV-1 RT)
CCOP(=O)(OCC)c1ccc(CN2CCC(Nc3nc(Oc4c(C)cc(/C=C/C#N)cc4C)c4sccc4n3)CC2)cc1 [15c, Diethyl (E)-(4-((4-((4-(4-(2-cyanovinyl)-2,6-dimethylphenoxy)thieno[3,2-d]pyrimidin-2-yl)amino)piperidin-1-yl)methyl)phenyl)phosphonate] | 0.0264 ± 0.0151 µM | 309 | 0.11 ± 0.0272 µM | 74 | 0.0201 ± 0.0108 µM | 0.0155 ± 0.00121 µM | 0.0441 ± 0.0256 µM | 0.0624 ± 0.0227 µM | 0.0566 ± 0.0191 µM | 0.0271 ± 0.0107 µM | 8.15 ± 0.64 µM | 
Cc1cc(C#N)cc(C)c1Oc1nc(NC2CCN(Cc3ccc(P(=O)(OC(C)(C)C)OC(C)(C)C)cc3)CC2)nc2ccsc12 [9g, Di-tert-butyl (4-((4-((4-(4-cyano-2,6-dimethylphenoxy)thieno[3,2-d]pyrimidin-2-yl)amino)piperidin-1-yl)methyl)phenyl)phosphonate] | 0.0993 ± 0.037 µM | 164 | > 16.3 µM | <1 | 0.31 ± 0.0578 µM | 0.124 ± 0.0262 µM | 0.719 ± 0.263 µM | 0.445 ± 0.157 µM | 0.179 ± 0.0198 µM | 0.637 ± 0.492 µM | 16.3 ± 4.28 µM | 
CCCCOP(=O)(OCCCC)c1ccc(CN2CCC(Nc3nc(Oc4c(C)cc(/C=C/C#N)cc4C)c4sccc4n3)CC2)cc1 [15d, Dibutyl (E)-(4-((4-((4-(4-(2-cyanovinyl)-2,6-dimethylphenoxy)thieno[3,2-d]pyrimidin-2-yl)amino)piperidin-1-yl)methyl)phenyl)phosphonate] | 0.173 ± 0.054 µM | 71 | 1.43 ± 0.173 µM | 9 | 0.265 ± 0.0844 µM | 0.188 ± 0.017 µM | 0.779 ± 0.316 µM | 0.714 ± 0.157 µM | 0.678 ± 0.196 µM | 0.495 ± 0.168 µM | 12.2 ± 3.91 µM | 
CCCCOP(=O)(OCCCC)c1ccc(CN2CCC(Nc3nc(Oc4c(C)cc(C#N)cc4C)c4sccc4n3)CC2)cc1 [9d, Dibutyl (4-((4-((4-(4-cyano-2,6-dimethylphenoxy)thieno[3,2-d]pyrimidin-2-yl)amino)piperidin-1-yl)methyl)phenyl)phosphonate] | 0.125 ± 0.039 µM | 62 | 6.5 ± 0.483 µM | 1 | 0.23 ± 0.054 µM | 0.196 ± 0.0136 µM | 0.311 ± 0.0504 µM | 0.24 ± 0.0583 µM | 0.241 ± 0.0349 µM | 0.248 ± 0.0373 µM | 7.8 ± 1.53 µM | 
Cc1cc(C#N)cc(C)c1Oc1nc(NC2CCN(Cc3ccc(P(=O)(OCC(C)C)OCC(C)C)cc3)CC2)nc2ccsc12 [9h, Diisobutyl (4-((4-((4-(4-cyano-2,6-dimethylphenoxy)thieno[3,2-d]pyrimidin-2-yl)amino)piperidin-1-yl)methyl)phenyl)phosphonate] | 0.0909 ± 0.0508 µM | 97 | 13.2 µM | 1 | 0.135 ± 0.0284 µM | 0.0533 ± 0.019 µM | 0.182 ± 0.0405 µM | 0.174 ± 0.0949 µM | 0.124 ± 0.0314 µM | 0.104 ± 0.0531 µM | 8.78 ± 9.12 µM | 
COP(=O)(OC)c1ccc(CN2CCC(Nc3nc(Oc4c(C)cc(C#N)cc4C)c4sccc4n3)CC2)cc1 [9b, Dimethyl (4-((4-((4-(4-cyano-2,6-dimethylphenoxy)thieno[3,2-d]pyrimidin-2-yl)amino)piperidin-1-yl)methyl)phenyl)phosphonate] | 0.00363 ± 0.00115 µM | 15,014 | 0.193 ± 0.0404 µM | 282 | 0.0108 ± 0.00342 µM | 0.00372 ± 0.00127 µM | 0.0153 ± 0.0101 µM | 0.00995 ± 0.00561 µM | 0.0149 ± 0.0086 µM | 0.00814 ± 0.00185 µM | 54.5 ± 1.29 µM | 0.35 ± 0.05 µM
Cc1cc(/C=C/C#N)cc(C)c1Oc1nc(NC2CCN(Cc3ccc(P(=O)(OCC(C)C)OCC(C)C)cc3)CC2)nc2ccsc12 [15h, Diisobutyl (E)-(4-((4-((4-(4-(2-cyanovinyl)-2,6-dimethylphenoxy)thieno[3,2-d]pyrimidin-2-yl)amino)piperidin-1-yl)methyl)phenyl)phosphonate] | 0.151 ± 0.0484 µM | 109 | 2.2 ± 0.36 µM | 8 | 0.712 ± 0.158 µM | 0.239 ± 0.027 µM | 1.12 ± 0.106 µM | 0.86 ± 0.218 µM | 0.758 ± 0.249 µM | 0.886 ± 0.167 µM | 16.5 ± 2.05 µM | 
Cc1cc(/C=C/C#N)cc(C)c1Oc1nc(NC2CCN(Cc3ccc(P(=O)(OC(C)(C)C)OC(C)(C)C)cc3)CC2)nc2ccsc12 [15g, Di-tert-butyl (E)-(4-((4-((4-(4-(2-cyanovinyl)-2,6-dimethylphenoxy)thieno[3,2-d]pyrimidin-2-yl)amino)piperidin-1-yl)methyl)phenyl)phosphonate] | 0.0206 ± 0.00831 µM | 359 | 0.197 ± 0.0305 µM | 38 | 0.0258 ± 0.0158 µM | 0.0169 ± 0.00768 µM | 0.0464 ± 0.00756 µM | 0.0553 ± 0.0222 µM | 0.0597 ± 0.0131 µM | 0.0437 ± 0.00752 µM | 7.4 ± 2.25 µM | 
Cc1cc(C#N)cc(C)c1Oc1nc(NC2CCN(Cc3ccc(P(=O)(O)O)cc3)CC2)nc2ccsc12 [compound 10, (4-((4-((4-(4-Cyano-2,6-dimethylphenoxy)thieno[3,2-d]pyrimidin-2-yl)amino)piperidin-1-yl)methyl)phenyl)phosphonic acid] | 16.5 µM | >14 | > 227 µM | <1 | > 227 µM | 147 µM | > 227 µM | > 227 µM | 160 µM | > 227 µM | > 227 µM | 
COP(=O)(OC)c1ccc(CN2CCC(Nc3nc(Oc4c(C)cc(/C=C/C#N)cc4C)c4sccc4n3)CC2)cc1 [15b, Dimethyl (E)-(4-((4-((4-(4-(2-cyanovinyl)-2,6-dimethylphenoxy)thieno[3,2-d]pyrimidin-2-yl)amino)piperidin-1-yl)methyl)phenyl)phosphonate] | 0.0191 ± 0.0139 µM | 1827 | 0.603 ± 0.139 µM | 58 | 0.0857 ± 0.028 µM | 0.013 ± 0.0038 µM | 0.193 ± 0.0748 µM | 0.478 ± 0.158 µM | 0.0645 ± 0.0317 µM | 0.129 ± 0.0833 µM | 34.9 ± 2.86 µM | 
Cc1cc(/C=C/C#N)cc(C)c1Oc1nc(NC2CCN(Cc3ccc(P(=O)(O)O)cc3)CC2)nc2ccsc12 [compound 16, (E)-(4-((4-((4-(4-(2-Cyanovinyl)-2,6-dimethylphenoxy)thieno[3,2-d]pyrimidin-2-yl)amino)piperidin-1-yl)methyl)phenyl)phosphonic acid] | 3.81 ± 1.52 µM | >57 | 170 µM | >1 | 13.6 µM | 6.27 ± 1.9 µM | 30.4 µM | 133 µM | 19.1 µM | 43.5 µM | > 217 µM | 
Cc1cc(/C=C/C#N)cc(C)c1Oc1nc(NC2CCN(Cc3ccc(P(=O)(OCC(F)(F)F)OCC(F)(F)F)cc3)CC2)nc2ccsc12 [15e, Bis(2,2,2-trifluoroethyl) (E)-(4-((4-((4-(4-(2-cyanovinyl)-2,6-dimethylphenoxy)thieno[3,2-d]pyrimidin-2-yl)amino)piperidin-1-yl)methyl)phenyl)phosphonate] | 0.138 ± 0.0558 µM | 113 | 0.747 ± 0.242 µM | 21 | 0.14 ± 0.0505 µM | 0.139 ± 0.0657 µM | 0.584 ± 0.272 µM | 0.497 ± 0.0492 µM | 0.423 ± 0.149 µM | 0.338 ± 0.0371 µM | 15.6 ± 2.67 µM | 
Cc1cc(C#N)cc(C)c1Oc1nc(NC2CCN(Cc3ccc(P(=O)(OC(C)C)OC(C)C)cc3)CC2)nc2ccsc12 [9f, Diisopropyl (4-((4-((4-(4-cyano-2,6-dimethylphenoxy)thieno[3,2-d]pyrimidin-2-yl)amino)piperidin-1-yl)methyl)phenyl)phosphonate] | 0.0248 ± 0.0148 µM | 4476 | 0.514 ± 0.0571 µM | 216 | 0.0295 ± 0.0142 µM | 0.0226 ± 0.00783 µM | 0.0735 ± 0.0694 µM | 0.042 ± 0.0117 µM | 0.0413 ± 0.0153 µM | 0.0284 ± 0.0134 µM | 111 ± 33.6 µM | 
Cc1cc(C#N)cc(C)c1Oc1nc(NC2CCN(Cc3ccc(P(=O)(OCC(F)(F)F)OCC(F)(F)F)cc3)CC2)nc2ccsc12 [9e, Bis(2,2,2-trifluoroethyl) (4-((4-((4-(4-cyano-2,6-dimethylphenoxy)thieno[3,2-d]pyrimidin-2-yl)amino)piperidin-1-yl)methyl)phenyl)phosphonate] | 0.033 ± 0.00763 µM | 527 | 1.29 ± 0.12 µM | 13 | 0.165 ± 0.111 µM | 0.0458 ± 0.00461 µM | 0.248 ± 0.0604 µM | 0.142 ± 0.0633 µM | 0.137 ± 0.083 µM | 0.0651 ± 0.0195 µM | 17.4 ± 2.85 µM | 
Cc1cc(/C=C/C#N)cc(C)c1Oc1nc(NC2CCN(Cc3ccc(P(=O)(OC(C)C)OC(C)C)cc3)CC2)nc2ccsc12 [15f, Diisopropyl (E)-(4-((4-((4-(4-(2-cyanovinyl)-2,6-dimethylphenoxy)thieno[3,2-d]pyrimidin-2-yl)amino)piperidin-1-yl)methyl)phenyl)phosphonate] | 0.0292 ± 0.00912 µM | 152 | 0.401 ± 0.321 µM | 11 | 0.0561 ± 0.0132 µM | 0.041 ± 0.00763 µM | 0.156 ± 0.059 µM | 0.195 ± 0.0323 µM | 0.162 ± 0.0358 µM | 0.0793 ± 0.013 µM | 4.45 ± 0.57 µM | 
